Assay results as given in US10669227B2 (THE RESEARCH FOUNDATION OF STATE UNIVERSITY OF NEW YORK, priority 2009, dated 2020).

Key:
[1] = biological target: MMP-2 (Homo sapiens (Human), UniProt P08253); test: MMP-2 inhibition in vitro, octapeptide substrate, HPLC; type: biochemical; details: for inhibition at 100 µM: read-out: MMP-2 Maximum Inhibition @100 μM; for MMP-2 Ratio (IC50 test compound/IC50 standard): standard 1,10-phenanthroline
[2] = biological target: MMP-13 (Collagenase-3) (Homo sapiens (Human), UniProt P45452); test: MMP-13 inhibition in vitro, octapeptide substrate, HPLC; type: biochemical; details: for inhibition at 100 µM: read-out: MMP-13 Maximum Inhibition @100 μM; for MMP-13 Ratio (IC50 test compound/IC50 standard): standard 1,10-phenanthroline
[3] = biological target: MMP-9 (human leukocyte gelatinase) (Homo sapiens (Human), UniProt P14780); test: MMP-9 inhibition in vitro, octapeptide substrate, HPLC; type: biochemical; details: read-out: Maximum Inhibition At 100 μM compound (MMP-9)
MMP-9 (human leukocyte gelatinase), sequence (P14780 94-707): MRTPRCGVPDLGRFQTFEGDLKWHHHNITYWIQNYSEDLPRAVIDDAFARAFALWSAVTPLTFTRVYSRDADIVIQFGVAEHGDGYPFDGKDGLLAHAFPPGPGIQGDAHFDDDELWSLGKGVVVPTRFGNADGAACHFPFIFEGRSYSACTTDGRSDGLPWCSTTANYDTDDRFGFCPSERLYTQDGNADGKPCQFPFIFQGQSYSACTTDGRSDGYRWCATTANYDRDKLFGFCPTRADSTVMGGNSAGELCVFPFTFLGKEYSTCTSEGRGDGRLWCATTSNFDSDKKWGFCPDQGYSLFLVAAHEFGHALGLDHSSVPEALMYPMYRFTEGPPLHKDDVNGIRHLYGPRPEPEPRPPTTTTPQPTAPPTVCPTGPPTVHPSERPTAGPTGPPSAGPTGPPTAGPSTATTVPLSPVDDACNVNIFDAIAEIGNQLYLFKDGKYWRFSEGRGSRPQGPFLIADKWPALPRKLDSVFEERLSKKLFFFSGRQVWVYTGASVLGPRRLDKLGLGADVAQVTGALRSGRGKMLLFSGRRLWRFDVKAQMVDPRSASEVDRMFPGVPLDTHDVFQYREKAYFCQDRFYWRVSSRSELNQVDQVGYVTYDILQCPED
From the text: In contrast all three chemically-modified curcumins at 100 μm final concentration inhibited gelatinase activity by 68-100% (FIG. 6 and Table 6).

[4] = Solubility in aqueous solutions; type: physicochemical; details: comparative
[5] = system: human monocytes; test: Cytotoxicity in human monocytes (MTS); type: cell-based
Procedure: Briefly, human peripheral blood monocytes (HMs) were isolated from a leukocyte concentrate by density gradient centrifugation (Lymphoprep) and the isolated HMs cultured (2 h, 37° C.) to remove non-adherent cells. […] After incubation, the proinflammatory cytokines, TNFα, […], MCP-1 and IL-6 were measured in the conditioned media by ELISA and cytotoxicity was assessed by measuring the absorbance (490 nm) of formazan produced by reduction of MTS. The HMs alone±0.1-0.5% DMSO produced minimal levels of these pro-inflammatory cytokines. However, addition of 100 ng/ml or 10 μg/ml of LPS both dramatically stimulated cytokine production.

[6] = system: TNF-α; test: Inhibition of TNF-α production by LPS-stimulated monocytes; type: cell-based, human; details: Homo sapiens, Monocyte, 18 h, read-out: % Inhibition of TNF-α produced by stimulated Monocytes with LPS @ 18 h
Procedure: Briefly, human peripheral blood monocytes (HMs) were isolated from a leukocyte concentrate by density gradient centrifugation (Lymphoprep) and the isolated HMs cultured (2 h, 37° C.) to remove non-adherent cells. The adherent HMs wore cultured for 18 h (1×10^6 cells/well, 24-well plates)±endotoxin (LPS)±different compounds dissolved in DMSO (the final concentration of DMSO in the RPMI serum-free culture media with Pen./Strep. antibiotics was no greater than 0.5%). After incubation, the proinflammatory cytokines, TNFα, […], MCP-1 and IL-6 were measured in the conditioned media by ELISA and cytotoxicity was assessed by measuring the absorbance (490 nm) of formazan produced by reduction of MTS. The HMs alone±0.1-0.5% DMSO produced minimal levels of these pro-inflammatory cytokines. However, addition of 100 ng/ml or 10 μg/ml of LPS both dramatically stimulated cytokine production.
The cytokine levels were measured by Luminex multiplex, a method that allows the simultaneous measurement of different biological markers.

MMP-2, sequence (P08253 110-660, species assumed): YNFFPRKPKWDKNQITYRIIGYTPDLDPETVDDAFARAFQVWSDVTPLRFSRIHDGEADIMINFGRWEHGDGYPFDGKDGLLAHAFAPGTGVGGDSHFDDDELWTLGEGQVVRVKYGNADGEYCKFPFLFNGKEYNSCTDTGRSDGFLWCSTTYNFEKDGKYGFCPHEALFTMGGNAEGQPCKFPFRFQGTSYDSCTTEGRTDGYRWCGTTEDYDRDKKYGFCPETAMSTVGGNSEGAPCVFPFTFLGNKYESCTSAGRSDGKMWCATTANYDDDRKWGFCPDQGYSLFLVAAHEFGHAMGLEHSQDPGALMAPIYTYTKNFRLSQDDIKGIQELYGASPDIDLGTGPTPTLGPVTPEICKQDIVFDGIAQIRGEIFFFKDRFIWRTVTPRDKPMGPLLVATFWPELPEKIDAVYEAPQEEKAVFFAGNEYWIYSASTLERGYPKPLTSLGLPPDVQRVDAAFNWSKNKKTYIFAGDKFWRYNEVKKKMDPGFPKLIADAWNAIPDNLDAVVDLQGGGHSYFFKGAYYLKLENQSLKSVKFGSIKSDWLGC

SMILES | inhibition at 100 µM [1] | MMP-2 Ratio (IC50 test compound/IC50 standard) [1] | inhibition at 100 µM [2] | MMP-13 Ratio (IC50 test compound/IC50 standard) [2] | inhibition at 100 µM [3] | Solubility [4] | further results
c1cnc2c(c1)ccc1cccnc12 [1,10-phenanthroline, 1,10-O-phenanthroline, reference compound] | 60% | 1.0 | 100% | 1.0 | 100% |  | 
COC(=O)C(C(=O)/C=C/c1ccccc1)C(=O)/C=C/c1ccccc1 [Compound 2] |  |  |  |  |  | improved solubility | 
COC(=O)C(C(=O)/C=C/c1ccc(O)cc1)C(=O)/C=C/c1ccc(O)cc1 [Compound 3, 1,7-Bis(4-hydroxyphenyl)-4-methoxycarbonylhepta-1E,6E-dien-3,5-dione] | 60% | 1.0 | 76% | 2.0 | 68% | more soluble in aqueous solutions than compound 1 | 
COc1cc(/C=C/C(=O)CC(=O)/C=C/c2ccc(O)c(OC)c2)ccc1O [Curcumin, curcumin] | 54% |  |  |  | 58% | insoluble | Cytotoxicity Monocytes @ 5 h incubation ([5]; 10 uM): 10 uM - 0%; Cytotoxicity Monocytes @ 18 h incubation ([5]; 10 uM): 10 uM - 0%; Cytotoxicity Monocytes @ 5 h incubation ([5]; 20 uM): 20 uM - 20%; Cytotoxicity Monocytes @ 18 h incubation ([5]; 20 uM): 20 uM - 20%; Cytotoxicity Monocytes @ 5 h incubation ([5]; 50 uM): 50 uM - 50%; Cytotoxicity Monocytes @ 18 h incubation ([5]; 50 uM): 50 uM - 77%; Cytotoxicity in monocyte culture ([5]; 50 and 100 μM, with some precipitation): significant cytotoxicity; inhibition at 10 µM ([6]; 10 uM): 0%; inhibition at 20 µM ([6]; 20 uM): 0%; inhibition at 50 µM ([6]; 50 uM): 80%

Continued, in another order:

inhibition at 100 µM [1] | MMP-2 Ratio (IC50 test compound/IC50 standard) [1] | inhibition at 100 µM [2] | MMP-13 Ratio (IC50 test compound/IC50 standard) [2] | SMILES | inhibition at 100 µM [3] | Solubility [4] | further results
36% | >3.6 | 50% | 62.5 | COc1cc(/C=C/C(=O)CC(=O)/C=C/c2ccc(N(C)C)cc2)ccc1O [Compound 4] | 100% |  | 
53% |  | 100% |  | COc1cc(/C=C/C(=O)C(C(=O)/C=C/c2ccc(O)c(OC)c2)C(=O)Nc2ccccc2)ccc1O [Compound 6, 1,7-Bis(4-hydroxy-3-methoxyphenyl)-4-N-phenylaminocarbonylhepta-1E,6E-dien-3,5-dione] |  |  | 
45% | 1.8 | 77% | <0.3 | O=C(/C=C/c1ccc(O)cc1)C(C(=O)/C=C/c1ccc(O)cc1)C(=O)Nc1ccccc1 [Compound 7, 1,7-Bis(4-hydroxyphenyl)-4-N-phenylaminocarbonylhepta-1E,6E-dien-3,5-dione] |  |  | 
 |  | 53% | 11.3 | CN(C)c1ccc(/C=C/C(=O)C(C(=O)/C=C/c2ccc(N(C)C)cc2)C(=O)Nc2ccccc2)cc1 [Compound 8, 1,7-Bis(4-dimethylaminophenyl)-4-N-phenylaminocarbonylhepta-1E,6E-dien-3,5-dione] |  |  | 
